Data: ChEMBL document CHEMBL3297683
The source made the active and inactive calls. The calls are words filed in the database; no cut-off is given here.

Key:
[1] = biological target: Lactoylglutathione lyase (Homo sapiens) (UniProt Q04760); test: Competitive inhibition of human GLO1 expressed in Escherichia coli JM103 at 0.1 to 0.7 mM by Dixon plot analysis
[2] = biological target: Lactoylglutathione lyase (Homo sapiens) (UniProt Q04760); test: Inactivation of human GLO1 expressed in Escherichia coli JM103 at 4.7 to 80.6 uM after 5 to 180 secs

Lactoylglutathione lyase (Homo sapiens), sequence (Q04760 2-184 limits assumed): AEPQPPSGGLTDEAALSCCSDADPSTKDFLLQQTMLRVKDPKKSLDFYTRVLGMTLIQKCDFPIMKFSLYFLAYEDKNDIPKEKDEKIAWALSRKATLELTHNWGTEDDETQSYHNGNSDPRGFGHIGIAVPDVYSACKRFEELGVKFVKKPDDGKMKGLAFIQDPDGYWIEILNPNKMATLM

For N[C@@H](CCC(=O)N[C@@H](CSCC(=O)OCCCCOC(=O)CBr)C(=O)NCC(=O)O)C(=O)O, the inhibition [1] was “inactive” and the Activity [2] was “Active”.
